Data reported in ChEMBL document CHEMBL5724696, “Autophagy assay results for EUbOPEN Chemogenomics Library” (2024).

Legend:
Assay type in all cases: functional, Homo sapiens
TERT-RPE1 = assay: (§1) Here: values are normalized to the negative (DMSO; defined as 0% autophagy induction) and positive (250nM Torin1; mTOR inhibitor; defined as maximal inducer of autophagy = 100%) control compounds and represented as % of autophagy induction. […] The impact of autophagy induction on cells is complex and depends on the affected target. As such, the magnitude of a phenotype may not be equally mirrored in the %-value of autophagy induction and vice versa. The dynamics of the induction may indicate the mode of activation: e.g. activation via phosphorylation or a signaling cascade may occur fast, while activation via transcription factors may take considerably longer. […] Of note, treatment concentrations may be sub-optimal for specific compounds, leading to false negative annotations.; settings: Culturing Media DMEM/F12 (1:1), 1 % Penicillin/Streptomycin, 10% Fetal bovin serum Add-On: No, Screening Media Control DMEM/F12 (1:1), Screening Media Samples DMEM/F12 (1:1)
U2OS [1] = assay: as §1; settings: Culturing Media DMEM, 1 % Penicillin/Streptomycin, 10% Fetal bovin serum Add-On: No, Screening Media Control DMEM, Screening Media Samples DMEM
U2OS [2] = assay: as §1; settings: Culturing Media DMEM, 1 % Penicillin/Streptomycin, 10% Fetal bovin serum Add-On: No, Screening Media Control DMEM, Screening Media Samples DMEM; remark: listed apart in the source
[3] = Compound Concentration 0.5 uM, Timepoint 12 hours
[4] = Compound Concentration 0.5 uM, Timepoint 24 hours
[5] = Compound Concentration 0.5 uM, Timepoint 36 hours
[6] = Compound Concentration 0.5 uM, Timepoint 60 hours
[7] = Compound Concentration 2 uM, Timepoint 12 hours
[8] = Compound Concentration 2 uM, Timepoint 24 hours
[9] = Compound Concentration 2 uM, Timepoint 36 hours
[10] = Compound Concentration 2 uM, Timepoint 60 hours
[11] = Compound Concentration 10 uM, Timepoint 12 hours
[12] = Compound Concentration 10 uM, Timepoint 24 hours
[13] = Compound Concentration 10 uM, Timepoint 36 hours
[14] = Compound Concentration 10 uM, Timepoint 60 hours

Structure (SMILES) | autophagy induction (U2OS [1]; [3]) [%] | autophagy induction (U2OS [1]; [4]) [%] | autophagy induction (U2OS [1]; [5]) [%] | autophagy induction (U2OS [1]; [6]) [%] | autophagy induction (U2OS [1]; [7]) [%] | autophagy induction (U2OS [1]; [8]) [%] | autophagy induction (U2OS [1]; [9]) [%] | autophagy induction (U2OS [1]; [10]) [%] | autophagy induction (U2OS [1]; [11]) [%] | autophagy induction (U2OS [1]; [12]) [%] | autophagy induction (U2OS [1]; [13]) [%] | autophagy induction (U2OS [1]; [14]) [%] | autophagy induction (U2OS [2]; [3]) [%] | autophagy induction (U2OS [2]; [4]) [%] | autophagy induction (U2OS [2]; [5]) [%] | autophagy induction (U2OS [2]; [6]) [%] | autophagy induction (U2OS [2]; [7]) [%] | autophagy induction (U2OS [2]; [8]) [%] | autophagy induction (U2OS [2]; [9]) [%] | autophagy induction (U2OS [2]; [10]) [%] | also measured
Cc1nc(C(=O)N2CCC[C@H]2Cc2nnc(-c3ccccc3)o2)c(-c2ccccc2F)s1 | 4.15 | -0.2081 | -2.227 | -2.102 | 0.7749 | -1.115 | -1.752 | -2.832 | 4.1851 | 1.702 | -1.044 | -3.102 | 13.4134 | 8.147 | 0.9843 | 3.676 | 5.837 | 5.052 | 3.424 | -6.267 | autophagy induction (TERT-RPE1; [3]): -3.536%; autophagy induction (TERT-RPE1; [4]): -6.3015%; autophagy induction (TERT-RPE1; [5]): -4.185%; autophagy induction (TERT-RPE1; [6]): -7.252%; autophagy induction (TERT-RPE1; [7]): -4.803%; autophagy induction (TERT-RPE1; [8]): -6.585%; autophagy induction (TERT-RPE1; [9]): -5.999%; autophagy induction (TERT-RPE1; [10]): -9.333%; autophagy induction (TERT-RPE1; [11]): 0.2716%; autophagy induction (TERT-RPE1; [12]): 0.5174%; autophagy induction (TERT-RPE1; [13]): 2.2318%; autophagy induction (TERT-RPE1; [14]): 3.905%; autophagy induction (U2OS [2]; [11]): 0.7146%; autophagy induction (U2OS [2]; [12]): 3.711%; autophagy induction (U2OS [2]; [13]): -0.07108%; autophagy induction (U2OS [2]; [14]): -6.907%
CC(C)(N)C(=O)N[C@H](COCc1ccccc1)C(=O)N1CCC2(CC1)CN(S(C)(=O)=O)c1ccccc12.CS(=O)(=O)O [IBUTAMOREN MESYLATE] | 0.1513 | -2.852 | -1.869 | 114.207 | 2.232 | 1.174 | -0.1276 | 113.997 | 21.0515 | 11.8835 | 9.457 | 114.001 | -8.194 | -5.824 | -3.752 | 0.1138 | -4.688 | -1.11 | 1.85 | -0.8182 | autophagy induction (U2OS [2]; [11]): 7.887%; autophagy induction (U2OS [2]; [12]): 2.743%; autophagy induction (U2OS [2]; [13]): 7.197%; autophagy induction (U2OS [2]; [14]): 14.096%
O=C1O[C@]2(CC[C@H](C(=O)Nc3ccn(-c4ccccc4F)n3)CC2)c2cnccc21 [MK-0557] | 3.984 | 1.732 | 0.4919 | 114.165 | 0.04111 | -0.7319 | -2.648 | 114.407 | 2.947 | -1.736 | -2.592 | 114.447 | 2.719 | -3.33 | -1.0176 | -10.434 | 13.2836 | 10.9196 | 6.623 | 2.549 | autophagy induction (U2OS [2]; [11]): 4.4586%; autophagy induction (U2OS [2]; [12]): 4.355%; autophagy induction (U2OS [2]; [13]): 0.9374%; autophagy induction (U2OS [2]; [14]): -12.6304%
